{"source": "PubChem BioAssay AID624491", "about": "(Broad Institute, 2012)", "test_system": "D54 ERlucT glycosylation luciferase reporter, luminescence, 24 h", "assay": "N-linked glycosylation inhibitors, luciferase reporter, dose response, D54 ERlucT cells, luminescence, cherry-picks (AID 624491);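 note: signal gain reflects blocked N-linked glycosylation of a luciferase reporter; actives raise luciferase signal so AC26 marks activators of the reporter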", "note": "Active and inactive are the calls of the source.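 Rule for the calls: active = fitted curve crossing a set activation limit at or below the highest valid dose tested; inconclusive = flat fit at 30 to 70% activation, or poor fit; inactive = the rest, including signal decreases.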"}
{"molecule": "N#CC1=C(N)Oc2c(c(=O)sc3ccccc23)C1c1cccnc1", "note": "(centres undefined)", "values": [{"measurement": "AC26", "value": 2860, "unit": "nM"}]}
{"molecule": "CCOc1ccc(NC(=O)c2cc(OC)nc3ccccc23)cc1", "values": [{"measurement": "AC26", "value": 284, "unit": "nM"}]}
{"molecule": "CCN(CC)CCn1c2ccccc2c2nc3ccc([N+](=O)[O-])cc3cc21", "values": [{"measurement": "AC26", "value": 7740, "unit": "nM"}]}
{"molecule": "Cc1[nH][nH]c(=O)c1C(c1ccc(-c2cccc(Cl)c2)o1)c1c(C)[nH][nH]c1=O", "values": [{"measurement": "AC26", "value": "< 1.2", "unit": "nM"}]}
{"molecule": "COc1cc(C#Cc2ccc3cc(CCCO)oc(=O)c3c2)cc(OC)c1", "values": [{"measurement": "AC26", "value": 161, "unit": "nM"}]}
{"molecule": "COc1cc(NC(C(=O)Nc2cccc(C(C)=O)c2)c2ccccc2)cc(OC)c1OC", "note": "(centres undefined)", "values": [{"measurement": "AC26", "value": 890, "unit": "nM"}]}
{"molecule": "c1cc2c3c(cccc3c1)C(N1CCCCC1)=N2", "values": [{"measurement": "AC26", "value": 13700, "unit": "nM"}]}
{"molecule": "C[C@@]12C(=O)Nc3ccc(F)cc3C(=O)N1[C@H]1c3cc(Cl)ccc3OC[C@@H]1[C@@H]2c1ccccc1", "values": [{"measurement": "AC26", "value": 1070, "unit": "nM"}]}
{"molecule": "COc1ccccc1/C=N/NC(=O)CSc1cc(C)nc2ccccc12", "values": [{"measurement": "AC26", "value": 2940, "unit": "nM"}]}
{"molecule": "CCCc1cc(C(=O)N/N=C/c2ccc(C)o2)c2ccccc2n1", "values": [{"measurement": "AC26", "value": 1040, "unit": "nM"}]}
{"molecule": "COc1ccc(Cl)cc1NC(=O)CN(C)CC(=O)Nc1cc(OC)c(OC)c(OC)c1", "values": [{"measurement": "AC26", "value": 10200, "unit": "nM"}]}
{"molecule": "Cc1ccc(NC(=O)c2ccc(Cl)cc2[N+](=O)[O-])nc1", "values": [{"measurement": "AC26", "value": 1080, "unit": "nM"}]}
{"molecule": "CCOc1cc(CNc2ccc3cn[nH]c3c2)ccc1OC", "values": [{"measurement": "AC26", "value": 1550, "unit": "nM"}]}
{"molecule": "COc1ccc(C2Nc3ccc4ccccc4c3-c3c2c(=O)oc2ccccc32)cc1", "note": "(centres undefined)", "values": [{"measurement": "AC26", "value": 2070, "unit": "nM"}]}
{"molecule": "CC(C)(C)c1ccc(OCc2ccc(C(=O)Nc3cccnc3)o2)cc1", "values": [{"measurement": "AC26", "value": 7560, "unit": "nM"}]}
{"molecule": "Clc1ccc(CSc2cnnc3ccccc23)cc1Cl", "values": [{"measurement": "AC26", "value": 13500, "unit": "nM"}]}
{"molecule": "O=C(c1cccs1)N1CCC(c2nc3c(nnn3Cc3cccc(Cl)c3)c(=O)[nH]2)CC1", "values": [{"measurement": "AC26", "value": 217, "unit": "nM"}]}
{"molecule": "COc1ccc(/C=N\\NC(=O)c2ccccc2F)cc1COc1ccc(F)cc1F", "values": [{"measurement": "AC26", "value": 3550, "unit": "nM"}]}
{"molecule": "Cc1cccc(C(=O)Oc2ccccc2/C=N/NC(=O)c2ccc(NC(=O)C(C)(C)C)cc2)c1", "values": [{"measurement": "AC26", "value": 1550, "unit": "nM"}]}
{"molecule": "CCCn1nc(C(=O)N2CC(=O)Nc3ccccc32)c2ccccc2c1=O", "values": [{"measurement": "AC26", "value": 4890, "unit": "nM"}]}
{"molecule": "Cn1ncc2c(O/N=C(\\N)c3ccc(C(F)(F)F)cc3)ncnc21", "values": [{"measurement": "AC26", "value": 445, "unit": "nM"}]}
{"molecule": "O=C(c1ccc(CS(=O)c2ccccc2Cl)o1)N1CCN(c2ccccn2)CC1", "note": "(centres undefined)", "values": [{"measurement": "AC26", "value": 5990, "unit": "nM"}]}
{"molecule": "CC(=O)c1ccc(N2CCN(C(=O)c3cccc(Oc4ccccc4)c3)CC2)cc1", "values": [{"measurement": "AC26", "value": 1140, "unit": "nM"}]}
{"molecule": "COCCNC(=O)c1cc(-c2ccccc2OC)on1", "values": [{"measurement": "AC26", "value": 9620, "unit": "nM"}]}
{"molecule": "Cc1c(C(=O)Nc2ccc3oc(-c4cccnc4)nc3c2)oc2ccccc12", "values": [{"measurement": "AC26", "value": 8840, "unit": "nM"}]}
{"molecule": "CC(C)(C)c1ccc(OCc2ccc(C(=O)N3CCOCC3)o2)cc1", "values": [{"measurement": "AC26", "value": 2160, "unit": "nM"}]}
{"molecule": "CC(C)(C)n1nnnc1C(c1ccccc1)N1CCc2ccccc2C1", "note": "(centres undefined)", "values": [{"measurement": "AC26", "value": 13900, "unit": "nM"}]}
{"molecule": "Oc1ccc(Nc2nc(N3CCCC3)c3ccccc3n2)cc1", "values": [{"measurement": "AC26", "value": 335, "unit": "nM"}]}
{"molecule": "Cc1ccccc1OCCc1c(C)[nH]c(=S)[nH]c1=O", "values": [{"measurement": "AC26", "value": 1700, "unit": "nM"}]}
{"molecule": "COc1cc(C(=O)N/N=C/c2ccc3c(c2)c2ccccc2n3C)ccc1O", "values": [{"measurement": "AC26", "value": 4070, "unit": "nM"}]}
{"molecule": "O=C(N/N=C/c1cccc(Br)c1)c1ccc(N2CCCC2=O)cc1", "values": [{"measurement": "AC26", "value": 6630, "unit": "nM"}]}
{"molecule": "COC(=O)c1ccccc1NC(=O)Cn1nnc(-c2ccc(OC)cc2)n1", "values": [{"measurement": "AC26", "value": "> 19500 nM (inactive)"}]}
{"molecule": "COc1ccc(NC(=O)c2oc3ccccc3c2NC(=O)c2ccco2)cc1", "values": [{"measurement": "AC26", "value": 11700, "unit": "nM"}]}
{"molecule": "C=CCNc1nc2cc(-c3ccccc3C)sc2c(=O)n1C", "values": [{"measurement": "AC26", "value": 2810, "unit": "nM"}]}
{"molecule": "COc1cc(C(=O)c2cocc2C(=O)c2ccc3c(c2)OCO3)cc(OC)c1OC", "values": [{"measurement": "AC26", "value": 111, "unit": "nM"}]}
{"molecule": "COc1cc(/C=N\\NC(=O)c2sc(N)nc2C)cc(OC)c1OC", "values": [{"measurement": "AC26", "value": 3140, "unit": "nM"}]}
{"molecule": "Cc1cc(NS(=O)(=O)c2ccc(NC(=O)COc3c(C)cc(Br)cc3C)cc2)no1", "values": [{"measurement": "AC26", "value": 550, "unit": "nM"}]}
{"molecule": "NC(=O)CC(NC(=O)c1ccc(Br)cc1)c1ccc(N2CCCCCC2)c([N+](=O)[O-])c1", "note": "(centres undefined)", "values": [{"measurement": "AC26", "value": 1410, "unit": "nM"}]}
{"molecule": "COc1ccc(C=CC(=O)c2ccc(OC)c(OC)c2O)cc1OC", "values": [{"measurement": "AC26", "value": 4390, "unit": "nM"}]}
{"molecule": "COc1ccc(S(=O)(=O)Nc2ccc3c(c2)n(C)c(=O)n3C)cc1C", "values": [{"measurement": "AC26", "value": 9910, "unit": "nM"}]}
{"molecule": "O=C(/C=C/c1ccc([N+](=O)[O-])cc1)/C=C/c1ccco1", "values": [{"measurement": "AC26", "value": 1140, "unit": "nM"}]}
{"molecule": "CCN1C(=O)c2cccc3c(S(=O)(=O)NCC4CCCO4)ccc1c23", "note": "(centres undefined)", "values": [{"measurement": "AC26", "value": 2990, "unit": "nM"}]}
{"molecule": "C#CCCOC(=O)N1C2=NC(C(=O)OC)=C(C(=O)OC)[C@@H]3N(C)c4ccccc4[C@]23C[C@H]1C(=O)OC", "values": [{"measurement": "AC26", "value": 479, "unit": "nM"}]}
{"molecule": "CCN(CC)c1ccc(/C=C2\\C(=O)N(c3nnc(C)c(=O)[nH]3)N=C2C)cc1", "values": [{"measurement": "AC26", "value": 1420, "unit": "nM"}]}
{"molecule": "Cc1cc(C)cc(NC(=O)CCn2c(=O)c3cccn3c3ccccc32)c1", "values": [{"measurement": "AC26", "value": 4950, "unit": "nM"}]}
{"molecule": "CN(C)c1ccc(C(C[N+](=O)[O-])c2c(N)n(C)c(=O)n(C)c2=O)c(F)c1C#N", "note": "(centres undefined)", "values": [{"measurement": "AC26", "value": 3300, "unit": "nM"}]}
{"molecule": "CCOC(=O)/C=C/C(=O)Nc1ccc(S(=O)(=O)N(C)c2ccccc2)cc1", "values": [{"measurement": "AC26", "value": "> 5000 nM (inactive)"}]}
{"molecule": "COc1cc2c(cc1OC)C(=O)N1[C@H]3c4cc(C)ccc4OC[C@@H]3[C@H](c3ccccc3)[C@]1(C)C(=O)N2", "values": [{"measurement": "AC26", "value": 387, "unit": "nM"}]}
{"molecule": "Cc1ccc(Cl)cc1N1CCN(S(=O)(=O)c2ccc(-c3ccc(=O)[nH]n3)o2)CC1", "values": [{"measurement": "AC26", "value": 5210, "unit": "nM"}]}
{"molecule": "N#Cc1c(-c2ccc(F)cc2)c(-c2ccc(F)cc2)nn(CCO)c1=O", "values": [{"measurement": "AC26", "value": 2080, "unit": "nM"}]}
{"molecule": "O=C(c1cccc(Oc2ccccc2)c1)N1CCN(c2ccccn2)CC1", "values": [{"measurement": "AC26", "value": 2190, "unit": "nM"}]}
{"molecule": "O=C(/C=C/c1cccc(Br)c1)c1ccc2c(c1)OCO2", "values": [{"measurement": "AC26", "value": 7470, "unit": "nM"}]}
{"molecule": "Cc1ccc(C(=O)N/C(=C\\c2ccco2)C(=O)NCCc2c[nH]c3ccccc23)cc1", "values": [{"measurement": "AC26", "value": 2310, "unit": "nM"}]}
{"molecule": "COc1ccc(Nc2nc(N)c(C(=O)c3ccc(OC)cc3)s2)cc1", "values": [{"measurement": "AC26", "value": 483, "unit": "nM"}]}
